# Where two headings read alike, the source gives them in different places.
# Tests used:
# [1] = system: Cushing's syndrome patients; conditions: in vivo
# Description: The risk of experiencing at least one episode of hypokalemia (potassium level <3.5 mEq/L) after 7 to 14 Days of exposure to KORLYM (mifepristone) was evaluated using stepwise multivariable logistic regression and single-variable logistic regression models. The following independent factors were evaluated for potential association with hypokalemia based on the biology of the disease: total cortisol at Day 1, ACTH at Day 1, and potassium level at Day 1.
# The risk of experiencing at least one episode of hypokalemia (potassium level <3.5 mmol/L) after 28 Days of exposure to KORLYM was evaluated using stepwise multivariable logistic regression and single-variable logistic regression models. The following independent factors were evaluated for potential association with hypokalemia based on the biology of the disease: total cortisol at Day 1 and Day 14 (cort_01 and cort_14), ACTH at Day 1 and Day 14 (ACTH_01 and ACTH_14), and potassium levels at Day 1 and Day 14 (K_01 and K_14).
# Patients were defined to have severe/recurrent hypokalemia for this analysis if they had at least one value of potassium of 2.5 mmol/L or lower, or if they had recurrent hypokalemia (hypokalemia occurring during multiple visits after Day 14 visit).
# (§1) The Cushing's syndrome study reported herein was conducted in accordance with the Declaration of Helsinki and Good Clinical Practice (GCP) according to International Conference on Harmonization (ICH) guidelines.
# (§2) Dosing Schedule Dosing was started with 300 mg of mifepristone once per day for 14 days. After 14 days, if no clinical improvement was seen but the drug was well tolerated, the dose of mifepristone was increased to 600 mg once per day. After 4 weeks of dosing at 600 mg once per day, if no clinical improvement was seen but the drug was well tolerated, the dose was increased to 900 mg once per day. Dose escalation was based on weight with the maximum dose no higher than 20 mg/kg/day. […] After 4 weeks of dosing at 900 mg once per day, if no clinical improvement was seen but the drug was well tolerated, the dose was increased to 1200 mg once per day. Study duration was 24 weeks.
# Serum electrolytes, including potassium, were measured regularly throughout the study period.
# Extensive modeling of low potassium levels among the N=47 subjects was performed to determine the best predictors of low potassium after start of mifepristone. The modeling was based on logistic regressions where the endpoint was categorical Low vs High Potassium levels (Non-Hypokalemic Potassium >3.5 mmol/L vs Hypokalemic Potassium ≤3.5 mmol/L).
# (§3) Potassium levels were obtained on every subject at either screening or the pre-drug administration baseline visit, and then also at every scheduled post-baseline visit. Potassium levels post-baseline were therefore obtained as early as day 7 and through day 210 (week 30 was the last visit and was the 6 week follow-up visit). ACTH, and cortisol were measured at six visits (week 2 (day 14), week 6 (day 42), week 10 (day 70), week 16 (day 112), and week 24 (day 168) week 6 follow-up (day 210)).
# ACTH = ACTH levels during mifepristone treatment of Cushing's syndrome patients; format: in vivo, human; conditions: for ACTH Visit Change Values from Baseline / Ratio of ACTH Visit Change Values from Baseline per Baseline (ACTH_CHG/ACTH Baseline): Mean ± SD
# From the text: The term “measuring the level,” in the context of cortisol, ACTH, mifepristone, or other compounds, refers to determining, detecting, or quantitating the amount, level, or concentration of, for example, cortisol, ACTH, mifepristone, or other compound in a sample obtained from a subject. Plasma or serum samples are often used for measuring ACTH or cortisol level.
# The types of samples that are suitable for ACTH determination can be serum, plasma, saliva, urine, or any other biological fluid taken from a subject. In preferred embodiments, the sample is a serum sample, or is a plasma sample. The level of ACTH can be measured using various methods, including but not limited to, immunoassays, e.g., competitive immunoassay, radioimmunoassay (MA), immunofluorometric enzyme assay, and ELISA; competitive protein-binding assays; liquid chromatography (e.g., HPLC); and mass spectrometry, e.g., high-performance liquid chromatography/triple quadrupole-mass spectrometry (LC-MS/MS). Commercial kits for measuring ACTH are readily available, e.g., from Mayo clinic (Test ID: ACTH), Siemens Healthcare Global (Immulite® 2000 ACTH assay), and Roche Molecular Diagnostics (Catalog No. 03255751190). In preferred embodiments, ACTH levels are measured using a radioimmunoassay (RIA), most preferable a two-site MA, such as performed by Quest Diagnostics (Secaucus, N.J. 07094).
# as §1, §2, §3
# [2] = Day 210 (6 week follow-up), Hypokalemic
# [3] = Day 210 (6 week follow-up), Non-Hypokalemic
smiles,measurement,setting,value
"CC#C[C@]1(O)CC[C@H]2[C@@H]3CCC4=CC(=O)CCC4=C3[C@@H](c3ccc(N(C)C)cc3)C[C@@]21C [mifepristone, 11β-(4-dimethylaminophenyl)-17β-hydroxy-17α-(1-propynyl)-estra-4,9-dien-3-one]",developed hypokalemia on or after Day 28,"[1]; both, human",6.7%
same,developed severe/recurrent hypokalemia on or after Day 28,"[1]; both, human",6.7%
same,subjects with a Potassium value ≤3.5 mmol/L at any of the six visits,"[1]; both, human",21 subjects
same,subjects with a Potassium value ≤3.5 mmol/L at any post-baseline visit,"[1]; both, human",23 subjects
same,Number with Hypokalemia (%) (Potassium ≤ 3.4 mEq/L),"[1]; both, human, 6 week",7 (14%) Number (%)
same,Number with Hypokalemia (%) (Potassium ≤ 3.4 mEq/L),"[1]; both, human, 8 week",4 (8%) Number (%)
same,Number with Hypokalemia (%) (Potassium ≤ 3.4 mEq/L),"[1]; both, human, 10 week",4 (8%) Number (%)
same,Number with Hypokalemia (%) (Potassium ≤ 3.4 mEq/L),"[1]; both, human, 12 week",3 (6%) Number (%)
same,Number with Severe Hypokalemia (%) (Potassium ≤ 2.5 mEq/L),"[1]; both, human, 12 week",1 (2%) Number (%)
same,Number with Hypokalemia (%) (Potassium ≤ 3.4 mEq/L),"[1]; both, human, 16 week",5 (10%) Number (%)
same,Number with Severe Hypokalemia (%) (Potassium ≤ 2.5 mEq/L),"[1]; both, human, 16 week",1 (2%) Number (%)
same,Number with Hypokalemia (%) (Potassium ≤ 3.4 mEq/L),"[1]; both, human, 20 week",1 (2%) Number (%)
same,Number with Hypokalemia (%) (Potassium ≤ 3.4 mEq/L),"[1]; both, human, 24 week",4 (8%) Number (%)
same,Hypokalemia observed,"[1]; both, human, 24 weeks",44%
same,No Hypokalemia,"[1]; both, human, 24 weeks",29 (64.4) n (%)
same,Non-Severe Hypokalemia,"[1]; both, human, 24 weeks",7 (15.6) n (%)
same,Severe/Recurrent Hypokalemia,"[1]; both, human, 24 weeks",9 (20.0) n (%)
same,developed hypokalemia after dosing,"[1]; both, human, 24 weeks",42.9%
same,Number with Hypokalemia (%) (Potassium ≤ 3.4 mEq/L),"[1]; both, human, 30 week",3 (6%) Number (%)
same,Number with Severe Hypokalemia (%) (Potassium ≤ 2.5 mEq/L),"[1]; both, human, 30 week",1 (2%) Number (%)
same,Number with Hypokalemia (%) (Potassium ≤ 3.4 mEq/L),"[1]; both, human, 1 day",2 (4%) Number (%)
same,Number with Hypokalemia (%) (Potassium ≤ 3.4 mEq/L),"[1]; both, human, 7 day",2 (4%) Number (%)
same,Number of Subjects Hypokalemic <=3.5 mmol/L,"[1]; both, human, 14 day",8
same,Number of Subjects Non-Hypokalemic >3.5 mmol/L,"[1]; both, human, 14 day",38
same,Number with Hypokalemia (%) (Potassium ≤ 3.4 mEq/L),"[1]; both, human, 14 day",8 (16%) Number (%)
same,Number with Severe Hypokalemia (%) (Potassium ≤ 2.5 mEq/L),"[1]; both, human, 14 day",1 (2%) Number (%)
same,subjects with a Potassium value ≤3.5 mmol/L as early as day 14,"[1]; both, human, 14 days",8
same,"subjects with a Potassium value ≤3.5 mmol/L as early as day 14, all post-baseline values","[1]; both, human, 14 days",11
same,Number with Hypokalemia (%) (Potassium ≤ 3.4 mEq/L),"[1]; both, human, 28 day",10 (20%) Number (%)
same,Number of Subjects Hypokalemic <=3.5 mmol/L,"[1]; both, human, 42 day",6
same,Number of Subjects Non-Hypokalemic >3.5 mmol/L,"[1]; both, human, 42 day",35
same,Number of Subjects Hypokalemic <=3.5 mmol/L,"[1]; both, human, 70 day",6
same,Number of Subjects Non-Hypokalemic >3.5 mmol/L,"[1]; both, human, 70 day",30
same,Number of Subjects Hypokalemic <=3.5 mmol/L,"[1]; both, human, 112 day",9
same,Number of Subjects Non-Hypokalemic >3.5 mmol/L,"[1]; both, human, 112 day",23
same,Number of Subjects Hypokalemic <=3.5 mmol/L,"[1]; both, human, 168 day",5
same,Number of Subjects Non-Hypokalemic >3.5 mmol/L,"[1]; both, human, 168 day",37
same,Number of Subjects Hypokalemic <=3.5 mmol/L,"[1]; both, human, 210 day",3
same,Number of Subjects Non-Hypokalemic >3.5 mmol/L,"[1]; both, human, 210 day",37
same,patients with at least one potassium value of 2.5 mmol/L or lower,[1],two
same,severity of hypokalemia,[1],mild to moderate
same,subjects with a day 7 Potassium value ≤3.5 mmol/L,[1],three
same,subjects with reported treatment emergent adverse events (TEAEs) of decreased blood potassium,[1],Seventeen
same,ACTH increase during mifepristone treatment,ACTH; 43 subjects with Cushing's disease,about two-fold
same,ACTH Visit Change Values from Baseline,"ACTH; Day 14, Hypokalemic",60.8 ± 99.6 (8) ng/L
same,Ratio of ACTH Visit Change Values from Baseline per Baseline (ACTH_CHG/ACTH Baseline),"ACTH; Day 14, Hypokalemic",1.87 ± 1.32 (8)
same,ACTH Visit Change Values from Baseline,"ACTH; Day 14, Non-Hypokalemic",30.6 ± 26.9 (38) ng/L
same,Ratio of ACTH Visit Change Values from Baseline per Baseline (ACTH_CHG/ACTH Baseline),"ACTH; Day 14, Non-Hypokalemic",1.77 ± 0.72 (38)
same,ACTH Visit Change Values from Baseline,"ACTH; Day 42, Hypokalemic",86.3 ± 58.2 (6) ng/L
same,Ratio of ACTH Visit Change Values from Baseline per Baseline (ACTH_CHG/ACTH Baseline),"ACTH; Day 42, Hypokalemic",2.50 ± 0.61 (6)
same,ACTH Visit Change Values from Baseline,"ACTH; Day 42, Non-Hypokalemic",40.6 ± 54.7 (35) ng/L
same,Ratio of ACTH Visit Change Values from Baseline per Baseline (ACTH_CHG/ACTH Baseline),"ACTH; Day 42, Non-Hypokalemic",2.02 ± 0.97 (35)
same,ACTH Visit Change Values from Baseline,"ACTH; Day 70, Hypokalemic",211.8 ± 147.5 (6) ng/L
same,Ratio of ACTH Visit Change Values from Baseline per Baseline (ACTH_CHG/ACTH Baseline),"ACTH; Day 70, Hypokalemic",4.08 ± 2.51 (6)
same,ACTH Visit Change Values from Baseline,"ACTH; Day 70, Non-Hypokalemic",49.2 ± 22.5 (30) ng/L
same,Ratio of ACTH Visit Change Values from Baseline per Baseline (ACTH_CHG/ACTH Baseline),"ACTH; Day 70, Non-Hypokalemic",2.06 ± 1.01 (30)
same,ACTH Visit Change Values from Baseline,"ACTH; Day 112, Hypokalemic",101.4 ± 159.6 (9) ng/L
same,Ratio of ACTH Visit Change Values from Baseline per Baseline (ACTH_CHG/ACTH Baseline),"ACTH; Day 112, Hypokalemic",2.53 ± 1.49 (9)
same,ACTH Visit Change Values from Baseline,"ACTH; Day 112, Non-Hypokalemic",70.2 ± 82.2 (23) ng/L
same,Ratio of ACTH Visit Change Values from Baseline per Baseline (ACTH_CHG/ACTH Baseline),"ACTH; Day 112, Non-Hypokalemic",2.47 ± 1.87 (23)
same,ACTH Visit Change Values from Baseline,"ACTH; Day 168, Hypokalemic",151.2 ± 166.5 (5) ng/L
same,Ratio of ACTH Visit Change Values from Baseline per Baseline (ACTH_CHG/ACTH Baseline),"ACTH; Day 168, Hypokalemic",3.30 ± 2.54 (5)
same,ACTH Visit Change Values from Baseline,"ACTH; Day 168, Non-Hypokalemic",48.2 ± 73.8 (37) ng/L
same,Ratio of ACTH Visit Change Values from Baseline per Baseline (ACTH_CHG/ACTH Baseline),"ACTH; Day 168, Non-Hypokalemic",2.08 ± 1.31 (37)
same,ACTH Visit Change Values from Baseline,ACTH; [2],113.7 ± 167.7 (3) ng/L
same,Ratio of ACTH Visit Change Values from Baseline per Baseline (ACTH_CHG/ACTH Baseline),ACTH; [2],1.36 ± 0.46 (3)
same,ACTH Visit Change Values from Baseline,ACTH; [3],13.4 ± 34.0 (37) ng/L
same,Ratio of ACTH Visit Change Values from Baseline per Baseline (ACTH_CHG/ACTH Baseline),ACTH; [3],1.33 ± 0.61 (37)
same,rise in ACTH levels following an initial increase in mifepristone dose (FIG. 1),ACTH; patients who did not experience hypokalemia,about 25 pg/mL

# Source: US11202787B2, “Use of ACTH in assessment and prophylactic treatment of hypokalemia associated with glucocorticoid receptor modulator treatment of Cushing's syndrome patients” (Corcept Therapeutics, Inc., priority 2018, dated 2021)
